Converted amounts (≈) assume the structure as drawn. The source made the active and inactive calls. The rule behind the calls is not given here. Bounds are passed on as bounds.

We go through 9 compounds from ChEMBL document CHEMBL4418500, “Methods of preventing or treating atherosclerosis with inhibitors of specific isoenzymes of human neuraminidase” (2018).

The nature of series [1]: Toxicity in normal diet fed 12 week old ApoE KO mouse assessed as induction of bleeding at 1 mg/kg, ip treated for 4 weeks (once every 2 days for first 2 weeks and then every day for third and the fourth weeks). It counts as organism-based. As to conditions: in vivo.
Series [2] can be described thus: Toxicity in normal diet fed 12 week old ApoE KO mouse assessed as effect on body weight at 1 mg/kg, ip treated for 4 weeks (once every 2 days for first 2 weeks and then every day for third and the fourth weeks). It counts as organism-based. To be noted: in vivo.
The species entered for series [3] is Mus musculus. Kind of series: Effect on lipid composition in ApoE KO mouse assessed as effect on triglycerides level. In kind it is functional, organism-based.
Series [4] is described as follows: Toxicity in normal diet fed 12 week old ApoE KO mouse assessed as effect on behavior at 1 mg/kg, ip treated for 4 weeks (once every 2 days for first 2 weeks and then every day for third and the fourth weeks). In kind it is organism-based. To be noted: in vivo.
For series [5], the species on record is Mus musculus. Put plainly: Effect on lipid composition in ApoE KO mouse assessed as increase in LDL cholesterol relative to control. It counts as functional.
The species named for series [6] is Mus musculus. Kind of series: Effect on lipid composition in ApoE KO mouse assessed as effect on HDL-cholesterol level. In kind it is functional, organism-based.
Series [7] can be described thus: Toxicity in normal diet fed 12 week old ApoE KO mouse assessed as induction of cytoplasmic vacuolization at 1 mg/kg, ip treated for 4 weeks (once every 2 days for first 2 weeks and then every day for third and the fourth weeks). It counts as organism-based. As to conditions: in vivo.
Series [8] is described as follows: Toxicity in normal diet fed 12 week old ApoE KO mouse assessed as induction of leukocyte infiltration at 1 mg/kg, ip treated for 4 weeks (once every 2 days for first 2 weeks and then every day for third and the fourth weeks). In kind it is organism-based. As to conditions: in vivo.
A short description of series [9]: Solubility in water. In kind it is physicochemical.
For series [10], the system named is Mus musculus. Put plainly: Reduction in size of fatty streaks in aortic root of normal diet fed 12 week old ApoE KO mouse at 1 mg/kg, ip treated for 4 weeks (once every 2 days for first 2 weeks and then every day for third and the fourth weeks) by Oil Red O staining based assay relative to control. It counts as functional. More on the design: scale not given: the % may be the effect or the level left.

The species entered for series [11] is Mus musculus. Put plainly: Effect on lipid composition in ApoE KO mouse assessed as effect on total cholesterol level. In kind it is functional, organism-based.
In series [12] the test system is Mus musculus. Kind of series: Inhibition of neuraminidase-3 activity in spleen of wild type C57BI6 mouse at 30 mg/kg, ip dosed for 2 consecutive days and measured 24 hrs post last dose by X-Neu5Ac substrate based histochemical assay relative to control. In kind it is functional.
Series [13] relates to Mus musculus. Put plainly: Inhibition of neuraminidase-4 activity in spleen of wild type C57BI6 mouse at 30 mg/kg, ip dosed for 2 consecutive days and measured 17 hrs post last dose by X-Neu5Ac substrate based histochemical assay relative to control. In kind it is functional.
Series [14] can be described thus: Toxicity in normal diet fed 16 week old ApoE KO mouse assessed as effect on behavior at 30 mg/kg, ip treated for 2 weeks (once every 2 days for first week and then every day for second week) by Oil Red O staining based assay relative to control. As to conditions: in vivo. In kind it is organism-based.
A short description of series [15]: Toxicity in normal diet fed 16 week old ApoE KO mouse assessed as induction of bleeding at 30 mg/kg, ip treated for 2 weeks (once every 2 days for first week and then every day for second week) by Oil Red O staining based assay relative to control. It counts as organism-based. To be noted: in vivo.
The nature of series [16]: Toxicity in normal diet fed 12 week old ApoE KO mouse assessed as induction of leukocyte infiltration at 30 mg/kg, ip treated for 4 weeks (once every 2 days for first 2 weeks and then every day for third and the fourth weeks). It counts as organism-based. To be noted: in vivo.
Series [17] has as its system Mus musculus. Put plainly: Inhibition of neuraminidase-1 activity in normal diet fed ApoE KO mouse at 30 mg/kg, ip treated for 2 weeks (once every 2 days for first week and then every day for second week) by X-Neu5Ac substrate based histochemical assay relative to control. In kind it is functional.
Series [18] has as its system Mus musculus. Put plainly: Reduction in size of fatty streaks in aortic root of normal diet fed 12 week old ApoE KO mouse at 30 mg/kg, ip treated for 4 weeks (once every 2 days for first 2 weeks and then every day for third and the fourth weeks) by Oil Red O staining based assay relative to control. In kind it is functional. More on the design: scale not given: the % may be the effect or the level left.

Series [19] in a line: Toxicity in normal diet fed 12 week old ApoE KO mouse assessed as effect on behavior at 30 mg/kg, ip treated for 4 weeks (once every 2 days for first 2 weeks and then every day for third and the fourth weeks). In kind it is organism-based. As to conditions: in vivo.
The test system of series [20] is Mus musculus. Kind of series: Inhibition of neuraminidase-1 activity in kidney of wild type C57BI6 mouse at 30 mg/kg, ip dosed for 2 consecutive days and measured 17 hrs post last dose by X-Neu5Ac substrate based histochemical assay relative to control. It counts as functional.
Series [21] in a line: Toxicity in normal diet fed 16 week old ApoE KO mouse assessed as effect on body weight at 30 mg/kg, ip treated for 2 weeks (once every 2 days for first week and then every day for second week) by Oil Red O staining based assay relative to control. It counts as organism-based. To be noted: in vivo.
A short description of series [22]: Toxicity in normal diet fed 16 week old ApoE KO mouse assessed as induction of leukocyte infiltration at 30 mg/kg, ip treated for 2 weeks (once every 2 days for first week and then every day for second week) by Oil Red O staining based assay relative to control. In kind it is organism-based. To be noted: in vivo.
In series [23] the test system is Mus musculus. Kind of series: Reduction in size of fatty streaks in aortic root of normal diet fed 16 week old ApoE KO mouse at 30 mg/kg, ip treated for 2 weeks (once every 2 days for first week and then every day for second week) by Oil Red O staining based assay relative to control. It counts as functional. On the set-up: scale not given: the % may be the effect or the level left.

The nature of series [24]: Toxicity in normal diet fed 12 week old ApoE KO mouse assessed as induction of cytoplasmic vacuolization at 30 mg/kg, ip treated for 4 weeks (once every 2 days for first 2 weeks and then every day for third and the fourth weeks). In kind it is organism-based. As to conditions: in vivo.
Series [25] in a line: Toxicity in normal diet fed 12 week old ApoE KO mouse assessed as effect on body weight at 30 mg/kg, ip treated for 4 weeks (once every 2 days for first 2 weeks and then every day for third and the fourth weeks). In kind it is organism-based. As to conditions: in vivo.
Series [26] can be described thus: Toxicity in normal diet fed 12 week old ApoE KO mouse assessed as induction of bleeding at 30 mg/kg, ip treated for 4 weeks (once every 2 days for first 2 weeks and then every day for third and the fourth weeks). It counts as organism-based. As to conditions: in vivo.
Series [27] is described as follows: Toxicity in normal diet fed 16 week old ApoE KO mouse assessed as induction of cytoplasmic vacuolation at 30 mg/kg, ip treated for 2 weeks (once every 2 days for first week and then every day for second week) by Oil Red O staining based assay relative to control. It counts as organism-based. As to conditions: in vivo.
Series [28] deals with T1, Sialidase-3 (Homo sapiens) (UniProt Q9UQ49).
T1 sequence (whole entry): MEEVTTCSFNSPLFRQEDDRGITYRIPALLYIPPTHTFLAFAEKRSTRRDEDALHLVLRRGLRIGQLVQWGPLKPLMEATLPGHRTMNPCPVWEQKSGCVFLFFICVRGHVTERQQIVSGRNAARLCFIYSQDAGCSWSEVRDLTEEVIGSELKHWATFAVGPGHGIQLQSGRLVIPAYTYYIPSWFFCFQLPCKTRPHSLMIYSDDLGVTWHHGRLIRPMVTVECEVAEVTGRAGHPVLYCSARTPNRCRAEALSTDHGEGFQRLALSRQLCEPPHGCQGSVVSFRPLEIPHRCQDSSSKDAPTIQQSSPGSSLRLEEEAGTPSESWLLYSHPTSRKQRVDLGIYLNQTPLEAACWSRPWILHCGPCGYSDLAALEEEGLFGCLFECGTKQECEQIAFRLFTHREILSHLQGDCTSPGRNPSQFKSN
To be noted: 1 mM.

The term solubility denotes the dissolved amount per volume that the medium holds. With `CCCCC(=O)N[C@H]1[C@H]([C@H](O)[C@H](O)Cc2ccc(-c3ccccc3)cc2)OC(C(=O)OC)=C[C@@H]1O`, the Activity entry was “Non-Toxic” in series [1]; “Non-Toxic” in series [2]; “Non-Toxic” in series [4]; 50% in the series listed under Mus musculus [5]; “Non-Toxic” in series [7]; “Non-Toxic” in series [8]. Besides, the Activity with Mus musculus [10] is 25 - 50%. Moreover, the outcome in the series filed under Mus musculus [3], in the series listed under Mus musculus [6] and in the series filed under Mus musculus [11] was inactive. Further, the solubility in [9] (water, read-out: solubility) is at least 10000 µg/mL.

For the compound `CC(=O)N[C@H]1[C@H]([C@H](O)[C@H](O)Cn2cc(-c3ccc(-c4ccccc4)cc3)nn2)OC(C(=O)O)=C[C@@H]1O`, the result in the series on Mus musculus [10] was Active.

Consider `COC(=O)C1=C[C@H](NC(=N)N)[C@@H](NC(C)=O)[C@H]([C@H](O)[C@H](O)Cn2cc(-c3ccc(-c4ccccc4)cc3)nn2)O1`, for which the Activity result is on record as “Non-Toxic” in series [1]; “Non-Toxic” in [2]; “Non-Toxic” in series [4]; 50% in the series listed under Mus musculus [5]; “Non-Toxic” in [7]; “Non-Toxic” in series [8]. Moreover, the Activity in the series on Mus musculus [10] is on record as 25 - 50%. Besides, the result in the series filed under Mus musculus [3], in the series filed under Mus musculus [6] and in the series listed under Mus musculus [11] was inactive.

One may read the inhibition in vivo as the drop in the measured response relative to a control, in per cent. With `COC(=O)C1=C[C@H](O)[C@@H](NC(C)=O)[C@H]([C@H](O)[C@H](O)Cn2cc(-c3ccc(-c4ccccc4)cc3)nn2)O1`, the Activity result in [1] is “Non-Toxic”; in series [2], “Non-Toxic”; in series [4], “Non-Toxic”; in series [7], “Non-Toxic”; in [8], “Non-Toxic”; in the series on Mus musculus [10], 25 - 50%. Besides, the inhibition in vivo at 30 mg/kg in the series with Mus musculus [12] and with Mus musculus [13] was 70 to 80% in each case. The compound also yielded a solubility in series [9] (buffer) of 100 µg/mL (≈ 197 µM).

With `CCCCC(=O)NC[C@@H](O)[C@@H](O)[C@@H]1OC(C(=O)OC)=C[C@H](O)[C@H]1NC(C)=O`, the Activity entry is reported as “Non-Toxic” in series [14]; “Non-Toxic” in [15]; “Non-Toxic” in series [16]; 25 - 50% in the series on Mus musculus [18]; “Non-Toxic” in series [19]; “Non-Toxic” in series [21]. Also, the Activity entry in [22] is “Non-Toxic”; in the series on Mus musculus [23] it was 25%; in the series listed under Mus musculus [5], 50%; in series [24], “Non-Toxic”; in [25] it was “Non-Toxic”; in series [26], “Non-Toxic”. The Activity entry in series [27] is reported as “Non-Toxic”. Also, the inhibition in vivo at 30 mg/kg in the series on Mus musculus [17] was 70 to 80%; in the series on Mus musculus [20] it was 90%. Besides, the result in the series listed under Mus musculus [3], in the series listed under Mus musculus [6] and in the series filed under Mus musculus [11] was inactive. Further, in series [9] (water, read-out: solubility), the solubility was at least 1000 µg/mL.

As for `CCCCC(=O)NC[C@@H](O)[C@@H](O)[C@@H]1OC(C(=O)O)=C[C@H](O)[C@H]1NC(C)=O`, the result with Mus musculus [18] and in the series with Mus musculus [23] was Active.

`CC(=O)N[C@H]1[C@H]([C@H](O)[C@H](O)CO)OC(C(=O)O)=C[C@@H]1O`: the inhibition result in series [28] is “Active”.

As to `CCCCC(=O)N[C@H]1[C@H]([C@H](O)[C@H](O)Cc2ccc(-c3ccccc3)cc2)OC(C(=O)O)=C[C@@H]1O`, in the series on Mus musculus [10], the result was Active.

As for `CC(=O)N[C@H]1[C@H]([C@H](O)[C@H](O)Cn2cc(-c3ccc(-c4ccccc4)cc3)nn2)OC(C(=O)O)=C[C@@H]1NC(=N)N`, the result in the series with Mus musculus [10] was Active.
